{"source": "patent US10780091B2", "about": "“TLR7 agonist maleate salt, crystalline forms C, D and E thereof, preparation methods and uses of maleate salt and crystalline forms” (CHIA TAI TIANQING PHARMACEUTICAL GROUP CO., LTD., priority 2016, dated 2020)", "assay": "Stability tests of the crystal forms (high temperature, high humidity, light)", "format": "physicochemical", "settings": "general statement; tests at 60° C., 40° C./75% humidity, 5000 Lx described but data not given", "description": "The crystal forms prepared in Examples 1-3 were tested in the accelerated test under high temperature conditions for stability in accordance with Guidelines for the Stability Test of Pharmaceutical Ingredients and Pharmaceutical Preparations (Chinese Pharmacopoeia 2010 Appendix XIXC).\nThe crystal forms C, D and E prepared in Examples 1-3 were placed in an open-clean container at 60° C., respectively. The samples were taken for test on day 10, day 20 and day 30, respectively. The results were compared with the initial test result on day 0.\nThe crystal forms prepared in Examples 1-3 were tested in the accelerated test under high humidity conditions for stability in accordance with Guidelines for the Stability Test of Pharmaceutical Ingredients and Pharmaceutical Preparations (Chinese Pharmacopoeia 2010 Appendix XIXC).\nThe crystal forms C, D and E prepared in Examples 1-3 were subjected to an accelerated test in a constant temperature and humidity vessel under the conditions of 40° C./75% humidity (open). The samples were taken for test on day 30, day 60 and day 90, respectively. The results were compared with the initial test result on day 0. […]"}
{"molecule": "CCCCOc1nc(N)c2[nH]cc(Cc3ccc(CN4CCCC4)cc3)c2n1.O=C(O)/C=C\\C(=O)O", "note": "[crystal form C, Maleate of 2-butoxy-7-(4-(pyrrolidin-1-ylmethyl)benzyl)-5H-pyrrolo[3,2-d]pyrimidin-4-amine]", "values": [{"measurement": "stability of the crystal form", "result": "good stability"}]}
